From ChEMBL document CHEMBL1157879
The source made the active and inactive calls. The rule behind the calls is not given here.

Tests used:
[1] = target: Lysosomal alpha-glucosidase (Homo sapiens) (UniProt P10253); assay: Activation of purified human recombinant acid alpha-glucosidase using resorufin alpha-D-glucopyranoside as substrate at 100 uM after 45 mins relative to basal
[2] = target: Lysosomal alpha-glucosidase (Homo sapiens) (UniProt P10253); assay: Activation of purified human recombinant acid alpha-glucosidase using glycogen as substrate up to 100 uM after 45 mins
[3] = target: T1, Alpha-galactosidase A (Homo sapiens) (UniProt P06280); assay: Activation of purified alpha-galactosidase A using 4-methylumbelliferyl-alpha-D-galactoside as substrate after 45 mins relative to basal
T1 sequence (whole entry): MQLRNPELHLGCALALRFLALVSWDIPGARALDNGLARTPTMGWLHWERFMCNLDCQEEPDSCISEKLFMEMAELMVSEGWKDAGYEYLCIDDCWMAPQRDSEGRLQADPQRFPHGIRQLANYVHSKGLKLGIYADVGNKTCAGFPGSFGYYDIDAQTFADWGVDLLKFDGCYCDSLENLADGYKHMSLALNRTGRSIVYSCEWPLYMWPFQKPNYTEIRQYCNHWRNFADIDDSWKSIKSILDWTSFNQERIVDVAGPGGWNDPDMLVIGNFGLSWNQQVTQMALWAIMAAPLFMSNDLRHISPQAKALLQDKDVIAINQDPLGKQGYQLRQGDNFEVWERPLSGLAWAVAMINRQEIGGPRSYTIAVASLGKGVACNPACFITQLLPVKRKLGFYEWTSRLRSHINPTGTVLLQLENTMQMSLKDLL

[4] = target: Lysosomal alpha-glucosidase (Homo sapiens) (UniProt P10253); assay: Activation of purified human recombinant acid alpha-glucosidase using resorufin alpha-D-glucopyranoside as substrate after 45 mins relative to basal
[5] = target: Lysosomal alpha-glucosidase (Homo sapiens) (UniProt P10253); assay: Activation of purified acid alpha-glucosidase in human spleen homogenates using resorufin alpha-D-glucopyranoside as substrate after 45 mins relative to basal
[6] = target: Lysosomal alpha-glucosidase (Homo sapiens) (UniProt P10253); assay: Activation of purified human recombinant acid alpha-glucosidase using 4-methylumbelliferyl-alpha-D-glucopyranoside as substrate after 45 mins relative to basal
[7] = target: Lysosomal alpha-glucosidase (Homo sapiens) (UniProt P10253); assay: Activation of purified acid alpha-glucosidase in human spleen homogenates using resorufin alpha-D-glucopyranoside as substrate at 10 uM after 45 mins relative to basal
[8] = target: Lysosomal alpha-glucosidase (Homo sapiens) (UniProt P10253); assay: Activation of purified acid alpha-glucosidase in human spleen homogenates using 4-methylumbelliferyl-alpha-D-glucopyranoside as substrate after 45 mins relative to basal

Activity [1]	Structure (SMILES)	also measured
192%	CCCN1CNc2c(c(=O)[nH]c(=S)n2CCc2ccsc2)C1	–
308%	CCCN1CNc2c(c(=O)[nH]c(=S)n2CCc2ccc(OC)cc2OC)C1	–
136%	CCCN1CNc2c(c(=O)[nH]c(=S)n2CCc2ccccc2C)C1	–
142%	CCCN1CNc2c(c(=O)[nH]c(=S)n2CCc2ccccc2)C1	–
197%	CCCN1CNc2c(c(=O)[nH]c(=S)n2CCc2cccc(Cl)c2)C1	–
356%	CCCN1CNc2c(c(=O)[nH]c(=S)n2CCc2ccc(OC)c(OC)c2)C1	Activity [2]: inactive; Activity [3]: inactive; Activity [4]: Dose-dependent effect; Activity [5]: Dose-dependent effect; Activity [6]: Dose-dependent effect; fold change (FC) [7]: 1.5; Activity [8]: Dose-dependent effect
218%	CCCN1CNc2c(c(=O)[nH]c(=S)n2CCc2cc(C)cc(C)c2)C1	–
309%	CCCN1CNc2c(c(=O)[nH]c(=S)n2CCc2ccc(OC)cc2)C1	–
inactive	COc1ccc(C#Cc2cnc(Cl)c3cncnc23)cc1OC	–
282%	COc1ccc(CCn2c3c(c(=O)[nH]c2=S)CN(C)CN3)cc1OC	–
120%	CCCN1CNc2c(c(=O)[nH]c(=S)n2CCc2ccc(Cl)cc2)C1	–
221%	CCCN1CNc2c(c(=O)[nH]c(=S)n2CCc2cccs2)C1	–
inactive	COc1ccc(CCc2c[nH]c(=O)c3cncnc23)cc1OC	–
295%	CCCN1CNc2c(c(=O)[nH]c(=S)n2CCc2cccc(C)c2)C1	–
166%	CCCN1CNc2c(c(=O)[nH]c(=S)n2CCCc2ccccc2)C1	–
300%	CCCN1CNc2c(c(=O)[nH]c(=S)n2CCc2cccc(C)c2C)C1	–
inactive	COc1ccc(C#Cc2c[nH]c(=O)c3cncnc23)cc1OC	–
338%	COc1ccc(CCn2c3c(c(=O)[nH]c2=S)CN(CC(C)C)CN3)cc1OC	Activity [2]: inactive
335%	COc1ccc(CCn2c3c(c(=O)[nH]c2=S)CN(Cc2ccccc2)CN3)cc1OC	–

Activity [1]	Structure (SMILES)	also measured
30.6%	CCCN1CNc2c(c(=O)[nH]c(=S)n2CCc2ccccn2)C1	–
inactive	O=c1[nH]cc(CCc2ccccc2)c2ncncc12	–
243%	CCCN1CNc2c(c(=O)[nH]c(=S)n2CCc2ccccc2OC)C1	–
316%	CCCN1CNc2c(c(=O)[nH]c(=S)n2CCc2cc(Cl)cc(Cl)c2)C1	–
311%	CCCN1CNc2c(c(=O)[nH]c(=S)n2CCc2ccccc2Cl)C1	–
275%	COc1ccc(CCn2c3c(c(=O)[nH]c2=S)CN(c2ccccc2)CN3)cc1OC	–
365%	CCCN1CNc2c(c(=O)[nH]c(=S)n2Cc2ccc(OCC)c(OCC)c2)C1	Activity [2]: inactive; Activity [3]: inactive; Activity [6]: Dose-dependent effect
inactive	CCCN1CNc2c(c(=O)[nH]c(=S)n2CC(C)(C)C)C1	–
327%	CCCN1CNc2c(c(=O)[nH]c(=S)n2CCc2cc(OC)ccc2OC)C1	–
306%	CCCN1CNc2c(c(=O)[nH]c(=S)n2CCc2ccc(OCC)c(OCC)c2)C1	–
245%	CCCN1CNc2c(c(=O)[nH]c(=S)n2CCc2cc(C)ccc2C)C1	–
inactive	CCCN1CNc2c(c(=O)[nH]c(=S)n2CC(C)C)C1	–
227%	CCCN1CNc2c(c(=O)[nH]c(=S)n2CCc2c(OC)cccc2OC)C1	–
inactive	CCCCn1c(N)c(NCC)c(=O)[nH]c1=O	–
112%	CCCN1CNc2c(c(=O)[nH]c(=S)n2CCc2c(C)cccc2C)C1	–
302%	CCCN1CNc2c(c(=O)[nH]c(=S)n2CCc2cccc(OC)c2)C1	–
64.2%	COc1ccc(CCn2c3c(c(=O)[nH]c2=O)C(NC(=O)c2cccs2)(C(F)(F)F)C(=O)N3)cc1OC (stereo unspecified)	–
inactive	COc1ccc(CCn2c(=S)[nH]c(=O)c3nccnc32)cc1OC	–
88.8%	CCCN1CNc2c(c(=O)[nH]c(=S)n2CCc2ccc(Cl)c(Cl)c2)C1	–

Activity [1]	Structure (SMILES)	also measured
262%	CCCN1CNc2c(c(=O)[nH]c(=S)n2CCc2cccc(OC)c2OC)C1	–
297%	CCCN1CNc2c(c(=O)[nH]c(=O)n2CCc2ccc(OC)c(OC)c2)C1	–
300%	CCCN1CNc2c(c(=O)[nH]c(=S)n2CCc2ccc(C)cc2)C1	–
234%	COc1ccc(CCn2c3c(c(=O)[nH]c2=S)CN(C(C)C)CN3)cc1OC	Activity [3]: inactive; Activity [6]: Dose-dependent effect
323%	CCCN1CNc2c(c(=O)[nH]c(=S)n2CCc2ccc(C)cc2C)C1	–
inactive	COc1ccc(CCn2c(=S)[nH]c(=O)c3nc[nH]c32)cc1OC	–
332%	CCCN1CNc2c(c(=O)[nH]c(=S)n2CCc2cc(OC)cc(OC)c2)C1	–
346%	CCCN1CNc2c(c(=O)[nH]c(=S)n2CCc2cccc(Cl)c2Cl)C1	Activity [2]: inactive; Activity [3]: inactive; Activity [6]: Dose-dependent effect
inactive	O=c1[nH]cc(C#Cc2ccccc2)c2ncncc12	–
328%	CCCN1CNc2c(c(=O)[nH]c(=S)n2CCc2ccc3c(c2)OCCO3)C1	–
inactive	COc1ccc(CCn2c(=S)[nH]c(=O)c3c(C)cc(C)nc32)cc1OC	–
321%	CCCN1CNc2c(c(=O)[nH]c(=S)n2CCc2ccc(Cl)cc2Cl)C1	–
121%	COc1ccc(C(=O)NC2(C(F)(F)F)C(=O)Nc3c2c(=O)[nH]c(=O)n3CCc2ccc(OC)c(OC)c2)cc1 (stereo unspecified)	–
inactive	Clc1ncc(C#Cc2ccccc2)c2ncncc12	–
332%	CCCN1CNc2c(c(=O)[nH]c(=S)n2CCc2c(Cl)cccc2Cl)C1	Activity [2]: inactive; Activity [3]: inactive; Activity [6]: Dose-dependent effect
inactive	CCCN1CNc2c(c(=O)[nH]c(=S)n2CCC)C1	–
32.1%	COc1ccc(CCn2c(N)cc(=O)[nH]c2=S)cc1OC	–
325%	CCCN1CNc2c(c(=O)[nH]c(=S)n2CCc2cc(Cl)ccc2Cl)C1	–
338%	CCCN1CNc2c(c(=O)[nH]c(=S)n2CCc2ccc(C)c(C)c2)C1	–
